Tests used:
[1] = system: Lateral Amygdala glutamatergic neuron; assay: whole cell, current clamp recordings, square pulse at high depolarization, mouse brain slice; type: cell-based; conditions: for action potentials at higher stimulation levels / amount of current required to trigger an action potential / threshold to trigger an action potential: as summarised from the experimental results; for amount of current required to trigger an action potential / threshold to trigger an action potential: neocortex; for inactivation of the sodium fast channels / further neuronal firing relative to control: square pulse of 2.5s at high depolarization of membrane potential (approximately −30 mV), FIG. 2
From the text: (§1) A mouse brain slice was used to study the damage from Menthol, Linalool and Icilin. The amygdaloid complex is located within the medial temporal lobe in neocortex and amygdala. The lateral and basolateral nuclei of the amygdaloid complex receive sensory information from cortical and thalamic structures, process the information, and then transmit the information, either directly or through the basal nucleus, to the central nucleus. For experimental analysis of neuronal activity, synaptic responses from the basolateral complex can be evoked electrically using electrodes, and the action potentials can be measured. […] A square pulse of 2.5s was applied at high depolarization of membrane potential (approximately −30 mV).

[2] = system: Lateral Amygdala glutamatergic neuron; assay: whole cell, current clamp recordings with increasing concentration of gabazine (spontaneous action potential bursts), mouse brain slice; type: cell-based; conditions: Menthol 250 μM extracellularly 10 minutes previous to and during increasing concentrations of gabazine; recordings of 5 min, washout 10 min; FIG. 5 vs FIG. 3
From the text: as §1, with “As shown, neurons spontaneously present action” for “A square pulse of 2.5s was applied at high depolarization of membrane”, “bursts due to massive presynaptic discharges.” for “(approximately −30 mV).”

Structure (SMILES)	action potentials at higher stimulation levels [1]	amount of current required to trigger an action potential [1]	threshold to trigger an action potential [1]	inactivation of the sodium fast channels / further neuronal firing relative to control [1]	spontaneous action potential bursts under gabazine [2]
O=C1NC(c2cccc([N+](=O)[O-])c2)=CCN1c1ccccc1O [Icilin]	abort action potentials at higher stimulation levels	increase the amount of current required to trigger an action potential	increase the threshold to trigger an action potential	inactivation of the sodium fast channels happens sooner relative to control	
C=CC(C)(O)CCC=C(C)C (stereo not shown) [Linalool]	abort action potentials at higher stimulation levels	increase the amount of current required to trigger an action potential	increase the threshold to trigger an action potential	inactivation of the sodium fast channels happens sooner relative to control	
CC1CCC(C(C)C)C(O)C1 (stereo not shown) [Menthol]	abort action potentials at higher stimulation levels	increase the amount of current required to trigger an action potential	increase the threshold to trigger an action potential	inactivation of the sodium fast channels happens sooner relative to control	complete absence or a strongly decreased presence of spontaneous bursts

— patent publication US20160166570A1, “TREATMENT OR PREVENTION OF NON-INFLAMMATORY NEURONAL DAMAGE FROM BRAIN TRAUMA AND STROKES USING MENTHOL, LINALOOL AND/OR ICILIN” (NESTEC S.A., priority 2013, published 2016)
